Test results taken from patent publication US12692268B2 (priority 2020, dated 2026).
Read-outs that look alike come from different tables or passages of the source.

Experiments:
JNK3 [1] = target: T1, JNK3 (Homo sapiens, UniProt P53779); assay: biochemical
JNK2 = JNK2 (Homo sapiens, UniProt P45984); assay: Kinase panel screening, single dose 10 μM; assay type: biochemical; conditions: single dose concentration of 10 μM; read-out: inhibitory activity for JNK2
GSK-β = GSK-β (Homo sapiens, UniProt P49841); assay: Kinase panel screening, single dose 10 μM; assay type: biochemical; conditions: single dose concentration of 10 μM; read-out: inhibitory activity for GSK-β
RIPK3 = RIPK3 (Homo sapiens, UniProt Q9Y572); assay: Kinase panel screening, single dose 10 μM; assay type: biochemical; conditions: single dose concentration of 10 μM; read-out: inhibitory activity for RIPK3
JNK3 [2] = target: T1, JNK3; assay: Kinase panel screening, single dose 10 μM; assay type: biochemical; conditions: single dose concentration of 10 μM; read-out: inhibitory activity for JNK3

T1 sequence (P53779 whole entry): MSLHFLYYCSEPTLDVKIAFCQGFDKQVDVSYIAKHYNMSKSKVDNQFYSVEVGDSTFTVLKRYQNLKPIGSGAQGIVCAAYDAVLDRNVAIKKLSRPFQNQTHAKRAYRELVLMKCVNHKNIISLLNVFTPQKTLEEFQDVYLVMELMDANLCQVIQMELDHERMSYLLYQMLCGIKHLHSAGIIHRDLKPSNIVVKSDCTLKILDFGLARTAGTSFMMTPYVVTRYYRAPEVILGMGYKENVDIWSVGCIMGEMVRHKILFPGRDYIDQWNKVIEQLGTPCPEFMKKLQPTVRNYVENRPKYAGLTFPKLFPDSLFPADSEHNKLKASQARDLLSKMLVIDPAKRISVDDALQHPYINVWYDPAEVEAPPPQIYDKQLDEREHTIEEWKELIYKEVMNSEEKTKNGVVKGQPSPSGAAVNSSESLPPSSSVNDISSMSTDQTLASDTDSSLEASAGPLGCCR
RIPK3, sequence (Q9Y572 whole entry, species assumed): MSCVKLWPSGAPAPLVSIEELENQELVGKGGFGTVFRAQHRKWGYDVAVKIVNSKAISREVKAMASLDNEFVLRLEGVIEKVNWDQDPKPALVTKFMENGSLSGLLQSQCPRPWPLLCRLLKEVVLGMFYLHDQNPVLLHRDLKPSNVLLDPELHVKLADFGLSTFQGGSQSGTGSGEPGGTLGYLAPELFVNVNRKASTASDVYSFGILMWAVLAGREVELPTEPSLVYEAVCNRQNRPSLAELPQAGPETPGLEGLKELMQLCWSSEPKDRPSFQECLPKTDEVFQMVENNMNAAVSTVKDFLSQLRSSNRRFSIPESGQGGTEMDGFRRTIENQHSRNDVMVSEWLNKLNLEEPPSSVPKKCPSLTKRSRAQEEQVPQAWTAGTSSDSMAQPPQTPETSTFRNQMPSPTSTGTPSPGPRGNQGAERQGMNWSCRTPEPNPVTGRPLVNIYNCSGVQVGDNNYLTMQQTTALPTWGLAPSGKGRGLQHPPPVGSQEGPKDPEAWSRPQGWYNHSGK
JNK2, sequence (P45984 whole entry, species assumed): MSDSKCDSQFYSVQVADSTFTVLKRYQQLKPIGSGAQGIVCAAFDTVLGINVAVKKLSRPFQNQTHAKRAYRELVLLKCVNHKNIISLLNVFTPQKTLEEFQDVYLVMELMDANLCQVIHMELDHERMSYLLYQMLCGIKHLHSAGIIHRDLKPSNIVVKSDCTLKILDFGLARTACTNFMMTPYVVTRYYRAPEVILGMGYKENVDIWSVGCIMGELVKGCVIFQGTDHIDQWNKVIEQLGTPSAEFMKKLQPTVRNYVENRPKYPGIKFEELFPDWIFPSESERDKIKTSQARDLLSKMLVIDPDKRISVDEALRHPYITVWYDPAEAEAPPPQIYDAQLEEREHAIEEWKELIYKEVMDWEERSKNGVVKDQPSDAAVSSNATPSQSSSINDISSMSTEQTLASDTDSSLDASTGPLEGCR
GSK-β, sequence (P49841 whole entry): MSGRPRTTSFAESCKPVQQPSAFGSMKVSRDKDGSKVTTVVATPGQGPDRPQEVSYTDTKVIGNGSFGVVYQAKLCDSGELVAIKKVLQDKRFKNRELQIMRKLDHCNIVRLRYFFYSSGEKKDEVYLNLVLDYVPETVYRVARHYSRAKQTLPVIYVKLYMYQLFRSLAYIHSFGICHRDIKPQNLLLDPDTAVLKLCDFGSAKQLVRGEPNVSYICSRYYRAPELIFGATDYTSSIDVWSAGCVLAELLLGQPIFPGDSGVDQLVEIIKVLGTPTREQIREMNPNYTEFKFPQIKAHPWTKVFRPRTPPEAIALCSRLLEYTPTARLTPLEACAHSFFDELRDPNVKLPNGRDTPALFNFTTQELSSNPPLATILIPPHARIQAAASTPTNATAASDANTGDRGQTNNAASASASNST

Compound: O=C(C1CC1)N1CCC[C@H](Nc2nccc(-n3c(-c4ccc(Cl)c(Cl)c4)nc4c3CN(C(=O)N3CCC(O)CC3)C4)n2)C1 [Compound 16a, (S)-(1-(2-((1-(cyclopropanecarbonyl)piperidin-3-yl)amino)pyrimidin-4-yl)-2-(3,4-dichlorophenyl)-4,6-dihydropyrrolo[3,4-d]imidazol-5(1H)-yl)(4-hydroxypiperidin-1-yl)methanone]
- IC50 (JNK3 [1]): < 30 nM

Compound: NC(=O)N1Cc2nc(-c3ccc(Cl)c(Cl)c3)n(-c3ccnc(N[C@@H]4CCN(C(=O)C5CC5)C4)n3)c2C1 [Compound 16c, (R)-1-(2-((1-(cyclopropanecarbonyl)pyrrolidin-3-yl)amino)pyrimidin-4-yl)-2-(3,4-dichlorophenyl)-4,6-dihydropyrrolo[3,4-d]imidazole-5(1H)-carboxamide]
- inhibition at 10 µM (JNK2): 100%
- inhibition at 10 µM (GSK-β): 70%
- inhibition at 10 µM (RIPK3): 50%
- inhibition at 10 µM (JNK3 [2]): 100%

Compound: NC(=O)N1Cc2nc(-c3ccc4c(c3)OCO4)n(-c3ccnc(N[C@H]4CCCN(C(=O)C5CCC5)C4)n3)c2C1 [Compound 16m, (S)-2-(benzo[d][1,3]dioxol-5-yl)-1-(2-((1-(cyclobutanecarbonyl)piperidin-3-yl)amino)pyrimidin-4-yl)-4,6-dihydropyrrolo[3,4-d]imidazole-5(1H)-carboxamide]
- IC50 (JNK3 [1]; JNK3 enzyme activity, Table 2, read-out: IC50): 100 to 10000 nM

Compound: NC(=O)N1Cc2nc(-c3ccc(Cl)c(Cl)c3)n(-c3ccnc(N[C@H]4CCCN(C(=O)C5CC5)C4)n3)c2C1 [Compound 16b, (S)-1-(2-((1-(cyclopropanecarbonyl)piperidin-3-yl)amino)pyrimidin-4-yl)-2-(3,4-dichlorophenyl)-4,6-dihydropyrrolo[3,4-d]imidazole-5(1H)-carboxamide]
- IC50 (JNK3 [1]; JNK3 enzyme activity, Table 1, read-out: IC50): < 30 nM
